The numbers were not newly measured in patent publication US20240060990A1, “SPATIAL SIGNALING NETWORKS FOR MULTIPLEXED DRUG RESPONSE MEASUREMENT AND MODELING” (Georgia Tech Research Corporation, priority 2022, published 2024), which cites them from elsewhere.

The subject of this data set is PC-9 cell cultures. The note with it: PC-9 cells, combined with Osimertinib; cited from earlier work.

Take `C=CC(=O)N1CCC(C)(Nc2cccc(C(F)(F)F)c2)C1` (centres unmarked) [YAP/TEAD inhibitor, MYF-01-37]: the cell apoptosis result is reported as “enhanced”.

As for `CC(C)Nc1cc(-c2c[nH]c(C(=O)N[C@H](CO)c3cccc(Cl)c3)c2)c(Cl)cn1` [VRT, VRT752271], the cell apoptosis entry is “enhanced”.
